Holding throughout (format): cell-based, rat
In assay [1] the test system is IR. The assay can be described thus: Phosphorylation of insulin receptor in L6 myotubes (immunoprecipitation, western blot). The following applies: 0.1–10 nM, 15 min, all concentrations tested. On the procedure: (§1) For in vitro cell culture experiments, after serum starvation for 18 h, myotubes were treated with various concentrations of quercetin or isorhamnetin (0.1–10 nM) for 15 min; DMSO (final 0.1%) was used as a vehicle control. As positive controls, 100 nM insulin, 1 mM AICAR, 10 nM leptin, or 100 ng/mL IL-15 were used for insulin, AMPK, JAK2/STAT, or JAK3/STAT signalling pathways, respectively. Cells were treated with insulin or AICAR for 15 min, leptin for 60 min, or IL-15 for 24 h. Whole protein and plasma membrane fractions were prepared from myotubes, as previously described. For in vivo experiment, plasma membrane fraction and tissue lysate of soleus muscle were prepared.
Translocation of GLUT4 to the plasma membrane, as well as expression and phosphorylation levels of GLUT4-related regulators were estimated by western blot analysis. Briefly, equal amounts of proteins were separated by sodium dodecyl sulfate-polyacrylamide gel electrophoresis (SDS-PAGE). […] Specific immune complexes were developed using ImmunoStar® LD and detected with an ATTO Light-Capture II Western Blotting Detection System. Individual band density was calculated by ImageJ and normalized to the control. […]
In general terms: A western blot detects proteins with antibodies after separation by electrophoresis.

Assay [2] deals with Akt. The assay can be described thus: Phosphorylation of Akt in L6 myotubes (western blot). The following applies: 15 min; for Akt phosphorylation at Ser473: higher concentrations (1 μM and 10 μM). The method, then: as §1
Translocation of GLUT4 to the plasma membrane, as well as expression and phosphorylation levels of GLUT4-related regulators were estimated by western blot analysis. Briefly, equal amounts of proteins were separated by sodium dodecyl sulfate-polyacrylamide gel electrophoresis (SDS-PAGE). Separated proteins were transferred onto a polyvinylidene fluoride membrane and nonspecific binding sites were blocked using either Blocking One (to detect unphosphorylated proteins) or Blocking One-P (to detect phosphoproteins). The membrane was incubated overnight with an appropriate primary antibody for GLUT4 (1:5000), IR (1:10000), p-IRS1 (1:5000), IRS1 (1:5000), p-PI3K (1:5000), PI3K (1:10000), p-Akt (1:5000), Akt (1:10000), p-AMPKα (1:5000), AMPKα (1:10000), p-ACC (1:5000), ACC (1:10000), p-LKB1 (1:5000), LKB1 (1:10000), p-JAK2 (1:5000), JAK2 (1:5000), p-JAK3 (1:5000), JAK3 (1:10000), p-STAT1 (1:5000), STAT1 (1:10000), p-STAT3 (1:5000), STAT3 (1:10000), p-STAT5 (1:5000), STAT5 (1:10000), or β-actin (1:20000), and subsequently treated with the corresponding horseradish peroxidase-conjugated secondary antibody (1:50000) for 1 h. Specific immune complexes were developed using ImmunoStar® LD and detected with an ATTO Light-Capture II Western Blotting Detection System. Individual band density was calculated by ImageJ and normalized to the control.
42 after morphological analysis of differentiation status using phase-contrast microscopy.
43 Preparation of whole protein and plasma membrane fractions After serum starvation
44 for 18 h, myotubes were treated with various concentrations of quercetin or isorhamnetin (1–
45 10 μM) for 15 min; DMSO (final 0.1%) was used as a vehicle control. As positive controls,
46 100 nM insulin, 1 mM AICAR, or 10 nM leptin were used for insulin, AMPK or JAK2/STAT
47 signalling pathways, respectively. Cells were treated with insulin or AICAR for 15 min, or
48 leptin for 60 min. […]
59 complexes were developed using ImmunoStar® LD and detected with an ATTO Light-Capture
60 Ⅱ Western Blotting Detection System. Individual band density was calculated by ImageJ and […]

Assay [3] concerns PI3K. The assay can be described thus: Phosphorylation of PI3K in L6 myotubes (western blot). As to conditions: 15 min. The method, then: as §1
Translocation of GLUT4 to the plasma membrane, as well as expression and phosphorylation levels of GLUT4-related regulators were estimated by western blot analysis. Briefly, equal amounts of proteins were separated by sodium dodecyl sulfate-polyacrylamide gel electrophoresis (SDS-PAGE). […] Specific immune complexes were developed using ImmunoStar® LD and detected with an ATTO Light-Capture II Western Blotting Detection System. Individual band density was calculated by ImageJ and normalized to the control.

The test system of assay [4] is L6 myotubes. The assay can be described thus: Enzymatic 2DG glucose uptake assay in L6 myotubes. As to conditions: 4 h; for glucose uptake, shape of concentration dependence: 0.01–10^4 nM. The method, then: In vitro cultured cell experiments were conducted according to a previously described protocol[6],[14]. Briefly, L6 myoblasts derived from rat skeletal muscle and of less than 40 passages were maintained in MEM supplemented with 10% foetal bovine serum (FBS) and antibiotics (100 U/ml penicillin and 100 μg/ml streptomycin) at 37 °C under a humidified atmosphere condition of 5% CO2 and 95% air. In each experiment, cells (2.2 × 10^4 cells/ml) were seeded into 96-well plates or 60-mm dishes for induction of differentiation into mature myotubes. After reaching confluence, cells were supplemented with differentiation medium containing 2% FBS and the same antibiotics for 7 days. Cells were used for each experiment after morphological analysis of differentiation status using phase-contrast microscopy. To explore the contribution of CaMKKβ or intracellular-free calcium ions in quercetin- and isorhamnetin-stimulated GLUT4 translocation, L6 cells were incubated in the presence or absence of 10 μM STO-609 and 25 μM […], respectively, for 30 min prior to treatment with either quercetin or isorhamnetin.
After serum starvation by incubating L6 myotubes in MEM with 0.2% BSA for 18 h, cells were treated with quercetin and isorhamnetin at the specified concentration (0.01 nM–10 μM) for 4 h in 0.2% BSA-containing medium. DMSO and insulin (100 nM) were used as a vehicle control and positive control, respectively. Glucose uptake was measured by an enzymatic 2DG uptake assay using myotubes on a 96-well plate as previously described.

Where [5] appears, read: 0.01 nM to 1 nM, compared with vehicle (DMSO).

In the case of `COc1cc(-c2oc3cc(O)cc(O)c3c(=O)c2O)ccc1O` [isorhamnetin, 3′-O-methyl quercetin], in assay [1], the “phosphorylation of insulin receptors (IRs)” value is “failed to activate”. Besides, in assay [2] (0.1–10 nM), the Akt phosphorylation entry is on record as “did not affect Akt phosphorylation”. The “Akt phosphorylation at Ser473” value in assay [2] is listed as “significantly increased Akt phosphorylation”. Further, the “phosphorylation of PI3K” value in assay [3] (0.1 nM) was “increased PI3K phosphorylation”. Also, the glucose uptake entry is reported as “increased glucose uptake in a dose-dependent manner” in assay [4] (setting [5]); “significant increase” in assay [4] (1 nM); “decreased glucose uptake” in assay [4] (10 nM); “decreased glucose uptake” in assay [4] (100 nM); “significant increase” in assay [4] (1 μM); “significant increase” in assay [4] (10 μM). Besides, in assay [4], the “glucose uptake, shape of concentration dependence” value is listed as “biphasic increase in glucose uptake”.
In the case of `O=c1c(O)c(-c2ccc(O)c(O)c2)oc2cc(O)cc(O)c12` [quercetin, 3,3′,4′,5,7-pentahydroxy flavone], the “phosphorylation of insulin receptors (IRs)” value in assay [1] was “failed to activate”. The “Akt phosphorylation at Thr308 and Ser473” value in assay [2] (10 nM) is listed as “increased Akt phosphorylation”. Further, in assay [2], the “Akt phosphorylation at Ser473” value was “significantly increased Akt phosphorylation”. For the same molecule, the “phosphorylation of PI3K” value in assay [3] (0.1–10 nM) is “significantly increased phosphorylation of PI3K”. Moreover, the glucose uptake result is listed as “increased glucose uptake in a dose-dependent manner” in assay [4] (setting [5]); “significant increase” in assay [4] (0.1 nM); “significant increase” in assay [4] (1 nM); “decreased glucose uptake” in assay [4] (10 nM); “decreased glucose uptake” in assay [4] (100 nM); “significant increase” in assay [4] (1 μM). Further, in assay [4] (10 μM), the glucose uptake result is listed as “significant increase”. Also, in assay [4], the “glucose uptake, shape of concentration dependence” value is on record as “biphasic increase in glucose uptake”.
